Laboratory results: patent EP0071087A1, “Improved determination of creatine phosphokinase in body fluids” (SERAGEN DIAGNOSTICS, INC., priority 1981, dated 1983)
Blank lines part the entries; values can stand above or below the compound they belong to.

Molecular target: T1, Purified Human Erythrocyte Adenylate Kinase (Homo sapiens, UniProt P00568)
T1 construct: from tissue; host or cells: human erythrocytes
T1 sequence (P00568 1-194): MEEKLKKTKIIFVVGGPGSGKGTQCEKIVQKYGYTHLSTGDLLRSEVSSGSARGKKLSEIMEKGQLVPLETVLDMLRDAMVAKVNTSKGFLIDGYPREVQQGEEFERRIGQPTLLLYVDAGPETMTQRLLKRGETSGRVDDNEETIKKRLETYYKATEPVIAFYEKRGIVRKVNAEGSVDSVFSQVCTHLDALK
Assay: Inhibition of purified human erythrocyte adenylate kinase in a CPK-UV (Oliver-Rosalki) assay
Type: biochemical
Conditions: 37°C
Method: Table I illustrates the utilization of a high AMP/ ADP ratio in inhibiting purified human erythrocyte adenylate kinase. Residual AK activity is measured in reagent systems containing all necessary components of the Oliver-Rosalki CPK assay. The systems vary as a function of three components: AMP, ADP, and sodium fluoride. The data points cover a 1.43-5.72m Mole/liter ADP range and a 2.9-29.2m Mole/liter AMP range plus or minus 6m Mole/ liter NaF.
The reagents of Example 1 and 2 were utilized with the AMP and ADP concentration listed in the table, with or without 6 m mole/liter sodium fluoride.

Measured Residual Adenylate Kinase (+NaF) (ADP 1.43 mM, AMP 2.9 mM, AMP/ADP 2.0, 6 m mole/liter NaF): 24 U/l | Measured Residual Adenylate Kinase (-NaF) (ADP 1.43 mM, AMP 2.9 mM, AMP/ADP 2.0, no NaF): 103 U/l | Measured Residual Adenylate Kinase (+NaF) (ADP 1.43 mM, AMP 5.8 mM, AMP/ADP 4.1, 6 m mole/liter NaF): 13 U/l | Measured Residual Adenylate Kinase (-NaF) (ADP 1.43 mM, AMP 5.8 mM, AMP/ADP 4.1, no NaF): 61 U/l | Measured Residual Adenylate Kinase (+NaF) (ADP 1.43 mM, AMP 7.3 mM, AMP/ADP 5.1, 6 m mole/liter NaF): 10 U/l | Measured Residual Adenylate Kinase (-NaF) (ADP 1.43 mM, AMP 7.3 mM, AMP/ADP 5.1, no NaF): 56 U/l | Measured Residual Adenylate Kinase (+NaF) (ADP 1.43 mM, AMP 10.2 mM, AMP/ADP 7.1, 6 m mole/liter NaF): 7.7 U/l | Measured Residual Adenylate Kinase (-NaF) (ADP 1.43 mM, AMP 10.2 mM, AMP/ADP 7.1, no NaF): 35 U/l | Measured Residual Adenylate Kinase (+NaF) (ADP 1.43 mM, AMP 14.6 mM, AMP/ADP 10.2, 6 m mole/liter NaF): 5.3 U/l | Measured Residual Adenylate Kinase (-NaF) (ADP 1.43 mM, AMP 14.6 mM, AMP/ADP 10.2, no NaF): 333 U/l | Measured Residual Adenylate Kinase (+NaF) (ADP 1.43 mM, AMP 21.9 mM, AMP/ADP 15.3, 6 m mole/liter NaF): 4.6 U/l | Measured Residual Adenylate Kinase (-NaF) (ADP 1.43 mM, AMP 21.9 mM, AMP/ADP 15.3, no NaF): 19 U/l | Measured Residual Adenylate Kinase (+NaF) (ADP 1.43 mM, AMP 29.2 mM, AMP/ADP 20.4, 6 m mole/liter NaF): 1.7 U/l | Measured Residual Adenylate Kinase (-NaF) (ADP 1.43 mM, AMP 29.2 mM, AMP/ADP 20.4, no NaF): 17 U/l | Measured Residual Adenylate Kinase (+NaF) (ADP 2.86 mM, AMP 2.9 mM, AMP/ADP 1.0, 6 m mole/liter NaF): 51 U/l | Measured Residual Adenylate Kinase (-NaF) (ADP 2.86 mM, AMP 2.9 mM, AMP/ADP 1.0, no NaF): 166 U/l | Measured Residual Adenylate Kinase (+NaF) (ADP 2.86 mM, AMP 5.8 mM, AMP/ADP 2.0, 6 m mole/liter NaF): 26 U/l | Measured Residual Adenylate Kinase (-NaF) (ADP 2.86 mM, AMP 5.8 mM, AMP/ADP 2.0, no NaF): 126 U/l | Measured Residual Adenylate Kinase (+NaF) (ADP 2.86 mM, AMP 7.3 mM, AMP/ADP 2.6, 6 m mole/liter NaF): 22 U/l | Measured Residual Adenylate Kinase (-NaF) (ADP 2.86 mM, AMP 7.3 mM, AMP/ADP 2.6, no NaF): 93 U/l | Measured Residual Adenylate Kinase (+NaF) (ADP 2.86 mM, AMP 10.2 mM, AMP/ADP 3.6, 6 m mole/liter NaF): 17 U/l | Measured Residual Adenylate Kinase (-NaF) (ADP 2.86 mM, AMP 10.2 mM, AMP/ADP 3.6, no NaF): 84 U/l | Measured Residual Adenylate Kinase (+NaF) (ADP 2.86 mM, AMP 14.6 mM, AMP/ADP 5.1, 6 m mole/liter NaF): 13 U/l | Measured Residual Adenylate Kinase (-NaF) (ADP 2.86 mM, AMP 14.6 mM, AMP/ADP 5.1, no NaF): 64 U/l | Measured Residual Adenylate Kinase (+NaF) (ADP 2.86 mM, AMP 21.9 mM, AMP/ADP 7.7, 6 m mole/liter NaF): 10 U/l | Measured Residual Adenylate Kinase (-NaF) (ADP 2.86 mM, AMP 21.9 mM, AMP/ADP 7.7, no NaF): 32 U/l | Measured Residual Adenylate Kinase (+NaF) (ADP 2.86 mM, AMP 29.2 mM, AMP/ADP 10.2, 6 m mole/liter NaF): 5.3 U/l | Measured Residual Adenylate Kinase (-NaF) (ADP 2.86 mM, AMP 29.2 mM, AMP/ADP 10.2, no NaF): 28 U/l | Measured Residual Adenylate Kinase (+NaF) (ADP 5.72 mM, AMP 2.9 mM, AMP/ADP 0.51, 6 m mole/liter NaF): 108 U/l | Measured Residual Adenylate Kinase (-NaF) (ADP 5.72 mM, AMP 2.9 mM, AMP/ADP 0.51, no NaF): 203 U/l | Measured Residual Adenylate Kinase (+NaF) (ADP 5.72 mM, AMP 5.8 mM, AMP/ADP 1.0, 6 m mole/liter NaF): 55 U/l | Measured Residual Adenylate Kinase (-NaF) (ADP 5.72 mM, AMP 5.8 mM, AMP/ADP 1.0, no NaF): 186 U/l | Measured Residual Adenylate Kinase (+NaF) (ADP 5.72 mM, AMP 7.3 mM, AMP/ADP 1.3, 6 m mole/liter NaF): 54 U/l | Measured Residual Adenylate Kinase (-NaF) (ADP 5.72 mM, AMP 7.3 mM, AMP/ADP 1.3, no NaF): 126 U/l | Measured Residual Adenylate Kinase (+NaF) (ADP 5.72 mM, AMP 10.2 mM, AMP/ADP 1.8, 6 m mole/liter NaF): 37 U/l | Measured Residual Adenylate Kinase (-NaF) (ADP 5.72 mM, AMP 10.2 mM, AMP/ADP 1.8, no NaF): 114 U/l | Measured Residual Adenylate Kinase (+NaF) (ADP 5.72 mM, AMP 14.6 mM, AMP/ADP 2.6, 6 m mole/liter NaF): 31 U/l | Measured Residual Adenylate Kinase (-NaF) (ADP 5.72 mM, AMP 14.6 mM, AMP/ADP 2.6, no NaF): 108 U/l | Measured Residual Adenylate Kinase (+NaF) (ADP 5.72 mM, AMP 21.9 mM, AMP/ADP 3.8, 6 m mole/liter NaF): 21 U/l | Measured Residual Adenylate Kinase (-NaF) (ADP 5.72 mM, AMP 21.9 mM, AMP/ADP 3.8, no NaF): 66 U/l | Measured Residual Adenylate Kinase (+NaF) (ADP 5.72 mM, AMP 29.2 mM, AMP/ADP 5.1, 6 m mole/liter NaF): 13 U/l | Measured Residual Adenylate Kinase (-NaF) (ADP 5.72 mM, AMP 29.2 mM, AMP/ADP 5.1, no NaF): 62 U/l
Compound: Nc1ncnc2c1ncn2[C@@H]1O[C@H](COP(=O)(O)O)[C@@H](O)[C@H]1O [AMP, adenosine monophosphate]

Compound: sodium fluoride [NaF]
Measured Residual Adenylate Kinase (+NaF) (ADP 1.43 mM, AMP 0 mM, 6 m mole/liter NaF): 327 U/l | Measured Residual Adenylate Kinase (+NaF) (ADP 2.86 mM, AMP 0 mM, 6 m mole/liter NaF): 398 U/l | Measured Residual Adenylate Kinase (+NaF) (ADP 5.72 mM, AMP 0 mM, 6 m mole/liter NaF): 460 U/l
